In one test the test system is Paracidovorax citrulli. Nature of the test: Antibacterial activity against Acidovorax citrulli SC42000 assessed as bacterial growth inhibition by broth microdilution method. The class given is functional. A general note: Broth dilution looks for growth in wells or tubes with falling amounts of substance.
Another test relates to Streptococcus iniae. Put plainly: Antibacterial activity against Streptococcus iniae SC41992 assessed as bacterial growth inhibition by broth microdilution method. It counts as functional.
In test [1] the test system is Bacillus amyloliquefaciens. Put plainly: Antibacterial activity against Bacillus amyloliquefaciens GDMCC 60233 assessed as bacterial growth inhibition by broth microdilution method. The class given is functional.
Another test deals with Dickeya chrysanthemi. Put plainly: Antibacterial activity against Dickeya chrysanthemi SC41999 assessed as bacterial growth inhibition by broth microdilution method. The class given is functional.
The next test concerns Streptococcus agalactiae. Put plainly: Antibacterial activity against Streptococcus agalactiae ATCC 13813 assessed as bacterial growth inhibition by broth microdilution method. It counts as functional.
Test [2] has as its system Staphylococcus aureus. Put plainly: Antibacterial activity against methicillin-resistant Staphylococcus aureus SC41993 assessed as bacterial growth inhibition by broth microdilution method. The class given is functional.
Another test relates to Bacillus subtilis. Put plainly: Antibacterial activity against Bacillus subtilis BS01 assessed as bacterial growth inhibition by broth microdilution method. The class given is functional.
Test [3] concerns Staphylococcus aureus. Put plainly: Antibacterial activity against Staphylococcus aureus ATCC 6538 assessed as bacterial growth inhibition by broth microdilution method. The class given is functional.
In the next test the test system is Escherichia coli. Put plainly: Antibacterial activity against Escherichia coli ATCC 25922 assessed as bacterial growth inhibition by broth microdilution method. It counts as functional.
A further test deals with Candida albicans. Nature of the test: Antifungal activity against Candida albicans assessed as fungal growth inhibition. It counts as functional.
The target in test [4] is Dual specificity protein phosphatase 3 (Homo sapiens, UniProt P51452). Nature of the test: Inhibition of human VHR.
In a further test the test system is Pseudomonas aeruginosa. Put plainly: Antibacterial activity against Pseudomonas aeruginosa ATCC 9027 assessed as bacterial growth inhibition by broth microdilution method. The class given is functional.
Another test has as its system Micrococcus luteus. Nature of the test: Antibacterial activity against Micrococcus luteus SC41991 assessed as bacterial growth inhibition by broth microdilution method. It counts as functional.
For test [5], the target named is T1, M-phase inducer phosphatase 2 (Homo sapiens, UniProt P30305).
T1 sequence (P30305 whole entry): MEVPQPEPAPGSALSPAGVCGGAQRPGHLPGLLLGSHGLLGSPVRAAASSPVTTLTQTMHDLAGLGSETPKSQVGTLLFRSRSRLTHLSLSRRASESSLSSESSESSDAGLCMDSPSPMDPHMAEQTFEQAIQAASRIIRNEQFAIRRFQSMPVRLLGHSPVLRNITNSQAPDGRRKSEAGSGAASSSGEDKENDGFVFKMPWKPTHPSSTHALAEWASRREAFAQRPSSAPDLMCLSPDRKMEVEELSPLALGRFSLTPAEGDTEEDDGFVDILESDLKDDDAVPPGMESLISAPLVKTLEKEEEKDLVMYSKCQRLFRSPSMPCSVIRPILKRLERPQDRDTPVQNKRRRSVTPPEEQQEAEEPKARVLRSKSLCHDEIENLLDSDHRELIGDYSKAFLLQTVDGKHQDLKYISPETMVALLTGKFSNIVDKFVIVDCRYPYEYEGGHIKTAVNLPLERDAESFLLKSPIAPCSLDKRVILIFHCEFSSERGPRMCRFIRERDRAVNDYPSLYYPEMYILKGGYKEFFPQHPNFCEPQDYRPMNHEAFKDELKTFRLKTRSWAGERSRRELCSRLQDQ
Nature of the test: Inhibition of human CDC25B.

For test [6], the target named is T2, Tyrosine-protein phosphatase non-receptor type 1 (Homo sapiens, UniProt P18031).
T2 sequence (P18031 whole entry): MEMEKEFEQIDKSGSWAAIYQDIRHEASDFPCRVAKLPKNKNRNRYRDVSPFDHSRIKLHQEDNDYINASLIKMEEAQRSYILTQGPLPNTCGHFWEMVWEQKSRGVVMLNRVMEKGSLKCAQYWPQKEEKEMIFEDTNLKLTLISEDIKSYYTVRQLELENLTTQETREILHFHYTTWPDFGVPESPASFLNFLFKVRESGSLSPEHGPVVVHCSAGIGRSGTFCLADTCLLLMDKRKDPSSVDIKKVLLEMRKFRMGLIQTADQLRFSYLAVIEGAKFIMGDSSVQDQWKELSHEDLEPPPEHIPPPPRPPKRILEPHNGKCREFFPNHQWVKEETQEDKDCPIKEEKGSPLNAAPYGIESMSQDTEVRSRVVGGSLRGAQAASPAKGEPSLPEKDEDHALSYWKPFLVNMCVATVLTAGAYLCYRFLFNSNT
Nature of the test: Inhibition of human PTP1B.

Test [7] concerns the target Receptor-type tyrosine-protein phosphatase F (Homo sapiens, UniProt P10586). Nature of the test: Inhibition of human LAR.

In brackets after ≈: the same amount, converted by molar mass.

Experimental findings from ChEMBL document CHEMBL5385931, “Microascones, Decahydrofluorene-Class Alkaloids from the Marine-Derived Fungus Microascus sp. SCSIO 41821” (J Nat Prod, 2024) are described below.

As a reminder, the MIC is the smallest concentration in the dilution series that meets the test's criterion for growth inhibition. One may read the IC50 as the point on the concentration scale where inhibition reaches its midpoint. High values mean weaker potency in that assay, low ones greater potency in that assay.

Receptor-type tyrosine-protein phosphatase F, sequence (P10586 whole entry): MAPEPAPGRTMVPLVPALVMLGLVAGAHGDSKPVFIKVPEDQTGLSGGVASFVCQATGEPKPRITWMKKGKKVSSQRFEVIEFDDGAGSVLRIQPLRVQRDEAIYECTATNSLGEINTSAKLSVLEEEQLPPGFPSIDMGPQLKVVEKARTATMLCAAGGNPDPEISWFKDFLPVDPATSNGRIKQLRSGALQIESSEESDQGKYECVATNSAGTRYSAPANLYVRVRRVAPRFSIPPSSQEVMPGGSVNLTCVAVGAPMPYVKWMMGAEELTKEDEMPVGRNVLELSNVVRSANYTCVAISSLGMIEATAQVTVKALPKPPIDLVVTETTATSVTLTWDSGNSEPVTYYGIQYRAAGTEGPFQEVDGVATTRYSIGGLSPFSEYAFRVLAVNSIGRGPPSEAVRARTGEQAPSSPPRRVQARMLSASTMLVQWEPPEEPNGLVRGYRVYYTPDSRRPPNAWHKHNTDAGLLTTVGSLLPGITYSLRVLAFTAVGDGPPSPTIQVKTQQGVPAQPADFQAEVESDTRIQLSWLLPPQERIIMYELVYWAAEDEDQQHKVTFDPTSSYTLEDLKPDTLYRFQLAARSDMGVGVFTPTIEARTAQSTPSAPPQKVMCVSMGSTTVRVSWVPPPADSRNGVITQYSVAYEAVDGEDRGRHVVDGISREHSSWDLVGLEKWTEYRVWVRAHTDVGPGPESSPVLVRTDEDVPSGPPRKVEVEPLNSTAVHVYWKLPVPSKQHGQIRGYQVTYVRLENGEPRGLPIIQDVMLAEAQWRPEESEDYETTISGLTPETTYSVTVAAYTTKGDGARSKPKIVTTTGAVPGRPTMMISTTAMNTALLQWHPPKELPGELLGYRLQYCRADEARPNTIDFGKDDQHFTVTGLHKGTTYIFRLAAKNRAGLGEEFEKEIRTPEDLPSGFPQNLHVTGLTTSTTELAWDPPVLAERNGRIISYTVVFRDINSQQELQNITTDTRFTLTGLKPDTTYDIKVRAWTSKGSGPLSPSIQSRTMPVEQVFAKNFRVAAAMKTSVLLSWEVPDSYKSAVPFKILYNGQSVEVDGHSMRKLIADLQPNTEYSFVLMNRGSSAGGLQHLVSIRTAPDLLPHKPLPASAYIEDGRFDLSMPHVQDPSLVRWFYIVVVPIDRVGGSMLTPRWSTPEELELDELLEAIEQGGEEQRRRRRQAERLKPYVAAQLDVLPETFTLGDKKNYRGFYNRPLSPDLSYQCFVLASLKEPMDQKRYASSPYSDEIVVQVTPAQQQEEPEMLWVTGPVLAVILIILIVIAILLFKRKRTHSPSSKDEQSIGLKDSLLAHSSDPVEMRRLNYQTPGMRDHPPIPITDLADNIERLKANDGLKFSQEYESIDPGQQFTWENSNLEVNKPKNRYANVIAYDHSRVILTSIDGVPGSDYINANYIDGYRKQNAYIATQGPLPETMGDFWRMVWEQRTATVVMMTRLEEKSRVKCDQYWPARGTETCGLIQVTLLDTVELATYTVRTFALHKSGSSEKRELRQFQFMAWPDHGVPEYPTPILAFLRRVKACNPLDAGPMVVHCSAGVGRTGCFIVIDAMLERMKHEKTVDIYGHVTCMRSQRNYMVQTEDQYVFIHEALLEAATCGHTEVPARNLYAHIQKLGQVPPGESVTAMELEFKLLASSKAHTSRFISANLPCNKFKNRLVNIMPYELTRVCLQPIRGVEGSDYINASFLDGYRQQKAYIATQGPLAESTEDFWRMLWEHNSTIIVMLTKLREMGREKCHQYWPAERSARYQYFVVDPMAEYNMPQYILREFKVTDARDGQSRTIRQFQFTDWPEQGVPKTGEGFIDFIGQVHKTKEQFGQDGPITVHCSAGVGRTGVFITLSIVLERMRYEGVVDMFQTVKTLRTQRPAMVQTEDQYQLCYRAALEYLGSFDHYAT
Dual specificity protein phosphatase 3, sequence (P51452 whole entry): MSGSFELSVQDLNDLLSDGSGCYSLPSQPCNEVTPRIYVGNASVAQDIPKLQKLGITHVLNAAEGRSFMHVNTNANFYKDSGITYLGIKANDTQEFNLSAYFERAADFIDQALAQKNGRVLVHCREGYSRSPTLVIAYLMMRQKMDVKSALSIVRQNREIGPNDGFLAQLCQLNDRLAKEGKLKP

In the case of GENTAMICIN SULFATE, the MIC in the test with Paracidovorax citrulli is 0.1 µg/mL; in the test on Streptococcus iniae, 1.3 µg/mL; in test [1] it was 0.62 µg/mL; with Dickeya chrysanthemi, 0.1 µg/mL; with Streptococcus agalactiae, 0.62 µg/mL; in the test with Staphylococcus aureus [2] it was 0.62 µg/mL. For the same compound, the minimal inhibitory concentration (MIC) with Bacillus subtilis turned out to be 0.62 µg/mL; in the test on Staphylococcus aureus [3], 1.3 µg/mL; in the test with Escherichia coli it was 0.62 µg/mL.
On to `CC(=O)N1CCN(c2ccc(OCC3COC(Cn4ccnc4)(c4ccc(Cl)cc4Cl)O3)cc2)CC1` (centres undefined) [KETOCONAZOLE], for which, in the test on Candida albicans, the MIC was 1.6 µg/mL (≈ 3.01 µM).
For `CC1=C[C@@]2(C)C(=C(C)[C@H]3[C@@H]4C[C@H](C)C[C@H](C)[C@H]4[C@H]4Oc5ccc(cc5)C[C@@H]5C(=O)NC(=O)[C@H]5C(=O)[C@@H]2[C@@H]43)[C@H]1C`, the IC50 in [4], in test [5], in [6] and in test [7] was greater than 200 µM throughout. The MIC with Paracidovorax citrulli was greater than 100 µg/mL; with Streptococcus iniae it was 50 µg/mL (≈ 94.7 µM); in the test on Pseudomonas aeruginosa, greater than 100 µg/mL; in [1], 100 µg/mL (≈ 189 µM); in the test with Dickeya chrysanthemi, greater than 100 µg/mL; in the test with Streptococcus agalactiae, 50 µg/mL (≈ 94.7 µM). Also, the MIC was 13 µg/mL (≈ 24.6 µM) in the test with Micrococcus luteus; 25 µg/mL (≈ 47.4 µM) in the test on Staphylococcus aureus [2]; 50 µg/mL (≈ 94.7 µM) with Bacillus subtilis; greater than 100 µg/mL in the test with Candida albicans; 100 µg/mL (≈ 189 µM) with Staphylococcus aureus [3]; 100 µg/mL (≈ 189 µM) in the test with Escherichia coli.
For the compound `CC1=C[C@@]2(C)C(=C(C)[C@H]3[C@@H]4C[C@H](C)C[C@H](C)[C@H]4[C@H]4Oc5ccc(cc5)C[C@@]5(O)C=C(C(=O)N5)C(=O)[C@H]2[C@@H]43)[C@H]1C`, the MIC with Paracidovorax citrulli was greater than 100 µg/mL; in the test with Streptococcus iniae it was 0.4 µg/mL (≈ 0.758 µM); with Pseudomonas aeruginosa, greater than 100 µg/mL; in [1], 0.4 µg/mL (≈ 0.758 µM); with Dickeya chrysanthemi, greater than 100 µg/mL; in the test with Streptococcus agalactiae, 0.4 µg/mL (≈ 0.758 µM). Also, the MIC in the test with Micrococcus luteus came to 1.6 µg/mL (≈ 3.03 µM); in the test on Staphylococcus aureus [2] it was 0.4 µg/mL (≈ 0.758 µM); in the test with Bacillus subtilis it was 0.2 µg/mL (≈ 0.379 µM); in the test with Candida albicans, 25 µg/mL (≈ 47.4 µM); in the test with Staphylococcus aureus [3] it was 0.8 µg/mL (≈ 1.52 µM); in the test with Escherichia coli it was 0.2 µg/mL (≈ 0.379 µM).
Turning to `CC1=C[C@@]2(C)C(=C(C)[C@H]3[C@@H]4C[C@H](C)C[C@H](C)[C@H]4[C@H]4Oc5ccc(cc5)C[C@@H]5C(=O)NC(=O)[C@H]5C(=O)[C@H]2[C@@H]43)[C@H]1C`, the IC50 in test [4] was greater than 200 µM; in test [5], greater than 200 µM; in [6] it was 11 µM; in test [7], greater than 200 µM. Further, the MIC in the test on Paracidovorax citrulli was greater than 100 µg/mL; in the test with Streptococcus iniae, 12.5 µg/mL (≈ 23.7 µM); in the test on Pseudomonas aeruginosa, greater than 100 µg/mL; in test [1] it was 100 µg/mL (≈ 189 µM); in the test with Dickeya chrysanthemi, greater than 100 µg/mL; with Streptococcus agalactiae, 25 µg/mL (≈ 47.4 µM). Further, the MIC in the test with Micrococcus luteus was 25 µg/mL (≈ 47.4 µM); with Staphylococcus aureus [2] it was 13 µg/mL (≈ 24.6 µM); in the test with Bacillus subtilis it was 13 µg/mL (≈ 24.6 µM); in the test on Candida albicans it was greater than 100 µg/mL; in the test with Staphylococcus aureus [3], 50 µg/mL (≈ 94.7 µM); in the test with Escherichia coli it was 25 µg/mL (≈ 47.4 µM).
Consider `CN[C@H](CC(C)C)C(=O)N[C@H]1C(=O)N[C@@H](CC(N)=O)C(=O)N[C@H]2C(=O)N[C@H]3C(=O)N[C@H](C(=O)N[C@H](C(=O)O)c4cc(O)cc(O)c4-c4cc3ccc4O)[C@H](O)c3ccc(c(Cl)c3)Oc3cc2cc(c3O[C@@H]2O[C@H](CO)[C@@H](O)[C@H](O)[C@H]2O[C@H]2C[C@](C)(N)[C@H](O)[C@H](C)O2)Oc2ccc(cc2Cl)[C@H]1O` [VANCOMYCIN], for which the MIC in the test with Paracidovorax citrulli was 0.1 µg/mL (≈ 0.069 µM); in the test on Streptococcus iniae, 1.25 µg/mL (≈ 0.863 µM); in test [1], 0.31 µg/mL (≈ 0.214 µM); in the test with Dickeya chrysanthemi, 0.1 µg/mL (≈ 0.069 µM); with Streptococcus agalactiae it was 2.5 µg/mL (≈ 1.73 µM); in the test on Micrococcus luteus, 1.25 µg/mL (≈ 0.863 µM). The MIC with Staphylococcus aureus [2] is 2.5 µg/mL (≈ 1.73 µM); in the test with Bacillus subtilis, 0.31 µg/mL (≈ 0.214 µM); in the test on Staphylococcus aureus [3], 2.5 µg/mL (≈ 1.73 µM); in the test with Escherichia coli, 0.31 µg/mL (≈ 0.214 µM).
